Literature values as cited in patent US20080293709A1, “Novel 2-Amino-Heterocycles Useful in the Treatment of Abeta-Related Pathologies” (AstraZeneca AB, priority 2005, published 2008).
Non-standard residues stand in square brackets, D forms with d. Residues, ends and D or L forms follow the SMILES beside them. *: point of attachment. Sta = CC(C)C[C@H](N)[C@@H](O)CC(=O)O; Isovaleryl = CC(C)CC(=O)*

Target: BACE (Homo sapiens, UniProt P56817)
Sequence (P56817 46-501): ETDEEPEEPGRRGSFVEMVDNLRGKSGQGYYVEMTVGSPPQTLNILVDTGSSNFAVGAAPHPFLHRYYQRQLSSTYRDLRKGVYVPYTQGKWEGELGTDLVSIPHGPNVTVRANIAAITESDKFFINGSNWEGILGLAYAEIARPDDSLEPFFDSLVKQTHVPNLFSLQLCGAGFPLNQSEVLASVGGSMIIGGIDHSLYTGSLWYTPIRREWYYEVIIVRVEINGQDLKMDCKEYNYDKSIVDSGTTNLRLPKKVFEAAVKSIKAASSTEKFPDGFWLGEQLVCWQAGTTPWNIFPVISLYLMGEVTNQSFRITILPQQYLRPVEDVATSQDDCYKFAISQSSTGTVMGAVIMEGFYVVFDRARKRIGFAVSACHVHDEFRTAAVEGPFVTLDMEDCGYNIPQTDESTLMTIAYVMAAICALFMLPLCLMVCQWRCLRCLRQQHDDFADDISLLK

## CC(C)CC(=O)N[C@H](C(=O)N[C@H](C(=O)N[C@@H](CC(C)C)[C@@H](O)CC(=O)N[C@@H](C)C(=O)N[C@@H](CC(C)C)[C@@H](O)CC(=O)O)C(C)C)C(C)C [pepstatin] (Isovaleryl-VV[Sta]A[Sta]-OH)
  inhibition of BACE: inhibited weakly
